{"source": "paper PMC4979471", "about": "(Cell Death Discovery, 2015)", "assay_in_all_cases": "Kinase selectivity, P33-radiolabeled assay", "type_in_all_cases": "biochemical", "key": {"CAMK1a": {"molecular_target": "T1, CAMK1a (Homo sapiens, UniProt Q14012)", "T1 construct": "purchased Reaction Biology Corp", "T1 sequence (Q14012 whole entry)": "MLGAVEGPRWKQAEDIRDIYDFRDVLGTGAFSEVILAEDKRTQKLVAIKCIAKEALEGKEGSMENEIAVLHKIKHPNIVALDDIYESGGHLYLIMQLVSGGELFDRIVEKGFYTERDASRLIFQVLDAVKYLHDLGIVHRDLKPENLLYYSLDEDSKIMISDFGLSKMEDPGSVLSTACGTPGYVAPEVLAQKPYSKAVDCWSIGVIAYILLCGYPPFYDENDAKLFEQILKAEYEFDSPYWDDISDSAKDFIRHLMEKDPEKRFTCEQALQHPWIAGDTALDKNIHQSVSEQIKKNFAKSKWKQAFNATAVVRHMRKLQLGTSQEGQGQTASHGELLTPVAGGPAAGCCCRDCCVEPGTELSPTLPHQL", "conditions": "10 μM ATP", "outline": "(§1)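 ATP at 10 μM; test article at 10 μM, single point, two replicates. Output is activity as % of DMSO.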"}, "CK1d": {"molecular_target": "T2, CK1d (Homo sapiens, UniProt P48730)", "T2 construct": "purchased Reaction Biology Corp", "T2 sequence (P48730 whole entry)": "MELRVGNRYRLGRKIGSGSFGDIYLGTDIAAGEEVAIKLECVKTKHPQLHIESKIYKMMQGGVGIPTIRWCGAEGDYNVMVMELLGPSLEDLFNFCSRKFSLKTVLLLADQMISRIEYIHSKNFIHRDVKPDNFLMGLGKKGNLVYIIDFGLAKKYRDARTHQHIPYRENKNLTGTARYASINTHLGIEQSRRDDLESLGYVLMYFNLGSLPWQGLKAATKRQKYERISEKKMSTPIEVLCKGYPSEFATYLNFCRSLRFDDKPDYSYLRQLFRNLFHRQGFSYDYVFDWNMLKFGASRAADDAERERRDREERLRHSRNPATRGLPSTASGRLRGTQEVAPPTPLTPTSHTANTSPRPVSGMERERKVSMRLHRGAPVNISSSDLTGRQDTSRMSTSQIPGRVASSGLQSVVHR", "conditions": "10 μM ATP", "outline": "as §1"}, "CLK2": {"molecular_target": "T3, CLK2 (Homo sapiens, UniProt P49760)", "T3 construct": "purchased Reaction Biology Corp", "T3 sequence (P49760 whole entry)": "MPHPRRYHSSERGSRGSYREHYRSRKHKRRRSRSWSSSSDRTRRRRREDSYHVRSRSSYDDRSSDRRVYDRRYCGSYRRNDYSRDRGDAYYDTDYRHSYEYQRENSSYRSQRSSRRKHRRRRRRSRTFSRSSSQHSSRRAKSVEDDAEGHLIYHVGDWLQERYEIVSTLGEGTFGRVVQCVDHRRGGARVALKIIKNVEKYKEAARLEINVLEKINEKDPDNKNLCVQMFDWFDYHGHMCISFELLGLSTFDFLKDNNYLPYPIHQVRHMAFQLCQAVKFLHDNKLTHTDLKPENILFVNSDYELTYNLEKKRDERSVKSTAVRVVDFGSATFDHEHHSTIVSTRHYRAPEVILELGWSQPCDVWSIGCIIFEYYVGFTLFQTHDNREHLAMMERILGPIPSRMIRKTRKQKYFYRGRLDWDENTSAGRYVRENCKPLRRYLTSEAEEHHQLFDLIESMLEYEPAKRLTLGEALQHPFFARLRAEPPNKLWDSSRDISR", "conditions": "10 μM ATP", "outline": "as §1"}, "DYRK4": {"molecular_target": "T4, DYRK4 (Homo sapiens, UniProt Q9NR20)", "T4 construct": "purchased Reaction Biology Corp", "T4 sequence (Q9NR20 1-520)": "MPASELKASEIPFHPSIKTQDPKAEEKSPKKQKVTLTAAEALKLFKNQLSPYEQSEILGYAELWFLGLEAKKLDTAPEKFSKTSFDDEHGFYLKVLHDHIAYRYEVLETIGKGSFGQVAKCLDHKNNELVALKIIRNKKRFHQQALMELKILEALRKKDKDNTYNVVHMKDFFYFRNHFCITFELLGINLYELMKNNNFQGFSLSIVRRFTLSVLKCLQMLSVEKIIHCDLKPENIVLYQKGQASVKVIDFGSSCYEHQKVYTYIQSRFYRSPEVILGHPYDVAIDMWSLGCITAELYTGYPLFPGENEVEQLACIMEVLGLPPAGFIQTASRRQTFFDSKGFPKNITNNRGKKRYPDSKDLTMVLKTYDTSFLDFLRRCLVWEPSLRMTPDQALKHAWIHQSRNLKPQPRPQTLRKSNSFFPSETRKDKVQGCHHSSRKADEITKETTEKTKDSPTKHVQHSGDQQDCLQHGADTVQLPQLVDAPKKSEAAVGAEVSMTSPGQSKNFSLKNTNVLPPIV", "conditions": "10 μM ATP", "outline": "as §1"}, "EGFR": {"molecular_target": "T5, EGFR (Homo sapiens, UniProt P00533)", "T5 construct": "purchased Reaction Biology Corp", "T5 sequence (P00533 25-1210)": "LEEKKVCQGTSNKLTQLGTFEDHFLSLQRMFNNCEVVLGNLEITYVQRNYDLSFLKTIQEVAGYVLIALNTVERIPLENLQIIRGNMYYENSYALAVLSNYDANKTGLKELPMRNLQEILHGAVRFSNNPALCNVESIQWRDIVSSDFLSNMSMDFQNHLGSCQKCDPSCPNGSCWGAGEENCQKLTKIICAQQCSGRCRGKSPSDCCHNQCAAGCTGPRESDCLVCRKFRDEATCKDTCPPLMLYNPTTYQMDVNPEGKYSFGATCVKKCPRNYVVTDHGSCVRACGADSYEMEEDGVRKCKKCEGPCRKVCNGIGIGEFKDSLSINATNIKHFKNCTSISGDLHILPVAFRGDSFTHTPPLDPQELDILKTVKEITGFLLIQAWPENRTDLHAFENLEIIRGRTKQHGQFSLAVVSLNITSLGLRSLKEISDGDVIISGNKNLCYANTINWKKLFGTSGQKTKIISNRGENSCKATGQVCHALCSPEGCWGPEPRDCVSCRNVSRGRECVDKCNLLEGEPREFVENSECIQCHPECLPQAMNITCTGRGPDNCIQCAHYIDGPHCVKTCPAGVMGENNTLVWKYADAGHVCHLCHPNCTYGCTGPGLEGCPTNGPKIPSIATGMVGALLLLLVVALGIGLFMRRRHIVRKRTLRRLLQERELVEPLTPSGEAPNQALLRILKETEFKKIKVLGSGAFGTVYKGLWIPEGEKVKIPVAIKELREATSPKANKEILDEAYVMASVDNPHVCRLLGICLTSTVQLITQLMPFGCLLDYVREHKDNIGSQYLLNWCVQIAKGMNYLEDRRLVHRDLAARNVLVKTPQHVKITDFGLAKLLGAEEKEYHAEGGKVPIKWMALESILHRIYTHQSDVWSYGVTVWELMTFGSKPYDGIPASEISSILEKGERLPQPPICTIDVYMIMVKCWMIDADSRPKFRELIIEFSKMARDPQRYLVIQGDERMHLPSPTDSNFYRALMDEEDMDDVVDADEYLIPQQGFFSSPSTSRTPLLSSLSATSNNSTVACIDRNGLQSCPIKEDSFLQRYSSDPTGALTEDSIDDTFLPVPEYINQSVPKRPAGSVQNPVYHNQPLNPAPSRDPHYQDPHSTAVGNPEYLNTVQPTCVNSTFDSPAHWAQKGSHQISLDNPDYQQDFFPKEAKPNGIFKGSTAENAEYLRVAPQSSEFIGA", "conditions": "10 μM ATP", "outline": "as §1"}, "MLCK/MYLK": {"molecular_target": "T6, MLCK/MYLK (Homo sapiens, UniProt Q15746)", "T6 construct": "purchased Reaction Biology Corp", "conditions": "10 μM ATP", "outline": "as §1"}, "PKCb2": {"molecular_target": "T7, PKCb2 (Homo sapiens, UniProt P05771)", "T7 construct": "purchased Reaction Biology Corp", "T7 sequence (P05771 1-673 isoform P05771-2)": "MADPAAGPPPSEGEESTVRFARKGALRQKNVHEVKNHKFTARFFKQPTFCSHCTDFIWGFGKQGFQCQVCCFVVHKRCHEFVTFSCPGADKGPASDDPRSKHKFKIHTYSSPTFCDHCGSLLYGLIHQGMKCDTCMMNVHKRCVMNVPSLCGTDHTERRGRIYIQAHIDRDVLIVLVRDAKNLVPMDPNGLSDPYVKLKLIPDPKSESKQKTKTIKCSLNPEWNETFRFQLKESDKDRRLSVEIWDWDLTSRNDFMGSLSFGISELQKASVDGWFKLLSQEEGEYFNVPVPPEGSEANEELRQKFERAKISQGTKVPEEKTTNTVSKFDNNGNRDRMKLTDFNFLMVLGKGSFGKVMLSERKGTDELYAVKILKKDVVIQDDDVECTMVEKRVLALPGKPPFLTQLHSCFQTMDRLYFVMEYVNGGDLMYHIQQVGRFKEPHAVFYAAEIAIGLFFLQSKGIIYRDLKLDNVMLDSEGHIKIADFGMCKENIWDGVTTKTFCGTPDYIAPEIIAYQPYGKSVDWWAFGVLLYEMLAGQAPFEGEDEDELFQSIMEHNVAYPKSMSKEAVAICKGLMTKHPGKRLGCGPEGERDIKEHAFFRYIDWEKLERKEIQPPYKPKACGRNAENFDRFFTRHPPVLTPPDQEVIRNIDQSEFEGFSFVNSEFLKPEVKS", "conditions": "10 μM ATP", "outline": "as §1"}, "PKCd": {"molecular_target": "T8, PKCd (Homo sapiens, UniProt Q05655)", "T8 construct": "purchased Reaction Biology Corp", "T8 sequence (Q05655 whole entry)": "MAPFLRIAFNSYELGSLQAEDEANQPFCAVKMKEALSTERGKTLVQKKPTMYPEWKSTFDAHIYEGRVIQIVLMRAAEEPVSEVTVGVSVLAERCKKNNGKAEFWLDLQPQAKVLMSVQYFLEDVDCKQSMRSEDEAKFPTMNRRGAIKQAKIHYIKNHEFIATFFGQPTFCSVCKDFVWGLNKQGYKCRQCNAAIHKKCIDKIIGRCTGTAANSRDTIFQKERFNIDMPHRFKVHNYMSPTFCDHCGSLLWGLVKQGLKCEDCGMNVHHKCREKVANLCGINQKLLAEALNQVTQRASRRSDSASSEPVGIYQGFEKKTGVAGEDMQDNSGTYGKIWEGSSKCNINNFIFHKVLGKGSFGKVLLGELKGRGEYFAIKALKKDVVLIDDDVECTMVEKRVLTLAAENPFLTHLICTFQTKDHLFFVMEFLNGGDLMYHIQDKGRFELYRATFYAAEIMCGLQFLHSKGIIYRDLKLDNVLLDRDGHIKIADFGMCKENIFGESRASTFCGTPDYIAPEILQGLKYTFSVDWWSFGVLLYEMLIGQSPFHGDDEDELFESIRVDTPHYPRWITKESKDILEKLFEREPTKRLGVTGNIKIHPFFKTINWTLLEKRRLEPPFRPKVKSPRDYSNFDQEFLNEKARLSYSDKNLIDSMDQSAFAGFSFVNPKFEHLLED", "conditions": "10 μM ATP", "outline": "as §1"}, "PKCmu/PRKD1": {"molecular_target": "T9, PKCmu/PRKD1 (Homo sapiens, UniProt Q15139)", "T9 construct": "purchased Reaction Biology Corp", "T9 sequence (Q15139 1-912)": "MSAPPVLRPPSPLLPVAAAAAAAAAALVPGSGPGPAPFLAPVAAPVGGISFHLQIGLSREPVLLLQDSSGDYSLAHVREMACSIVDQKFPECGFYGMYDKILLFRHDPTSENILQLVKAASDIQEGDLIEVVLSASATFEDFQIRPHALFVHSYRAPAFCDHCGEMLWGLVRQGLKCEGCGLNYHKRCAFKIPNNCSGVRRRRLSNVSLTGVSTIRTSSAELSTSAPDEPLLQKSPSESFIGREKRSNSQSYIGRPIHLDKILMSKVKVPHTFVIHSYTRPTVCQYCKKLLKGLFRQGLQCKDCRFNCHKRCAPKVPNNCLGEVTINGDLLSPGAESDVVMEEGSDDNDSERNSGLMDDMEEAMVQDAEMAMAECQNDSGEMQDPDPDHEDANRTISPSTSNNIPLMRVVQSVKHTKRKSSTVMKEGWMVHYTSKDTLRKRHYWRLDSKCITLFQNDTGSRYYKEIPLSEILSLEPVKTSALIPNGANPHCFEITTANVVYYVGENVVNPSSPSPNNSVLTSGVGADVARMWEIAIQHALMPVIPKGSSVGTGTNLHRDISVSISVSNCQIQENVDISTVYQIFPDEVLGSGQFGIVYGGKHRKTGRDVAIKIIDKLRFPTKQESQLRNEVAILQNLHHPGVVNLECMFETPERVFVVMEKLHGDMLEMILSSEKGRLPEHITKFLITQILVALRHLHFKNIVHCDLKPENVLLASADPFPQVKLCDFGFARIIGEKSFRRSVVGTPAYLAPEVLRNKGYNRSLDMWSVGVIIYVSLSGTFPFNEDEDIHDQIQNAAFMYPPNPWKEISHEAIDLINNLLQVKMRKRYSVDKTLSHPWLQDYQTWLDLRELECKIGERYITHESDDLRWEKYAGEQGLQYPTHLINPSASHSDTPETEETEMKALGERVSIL", "outline": "as §1"}, "PRKX": {"molecular_target": "T10, PRKX (Homo sapiens, UniProt P51817)", "T10 construct": "purchased Reaction Biology Corp", "T10 sequence (P51817 1-358)": "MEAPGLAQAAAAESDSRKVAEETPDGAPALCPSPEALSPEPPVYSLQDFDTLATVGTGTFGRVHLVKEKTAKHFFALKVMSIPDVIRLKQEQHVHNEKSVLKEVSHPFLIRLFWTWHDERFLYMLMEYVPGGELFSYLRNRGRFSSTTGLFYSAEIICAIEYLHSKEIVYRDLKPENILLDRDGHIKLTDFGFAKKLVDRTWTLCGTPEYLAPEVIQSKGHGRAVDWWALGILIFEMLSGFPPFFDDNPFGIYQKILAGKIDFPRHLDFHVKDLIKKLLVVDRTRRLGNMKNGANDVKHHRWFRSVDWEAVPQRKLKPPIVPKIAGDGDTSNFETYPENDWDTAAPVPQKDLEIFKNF", "conditions": "10 μM ATP", "outline": "as §1"}, "[1]": {"conditions": "read-out: % Enzyme Activity (relative to DMSO controls) AVG"}, "[2]": {"conditions": "read-out: % Enzyme Activity (relative to DMSO controls) Data 1"}, "[3]": {"conditions": "read-out: % Enzyme Activity (relative to DMSO controls) Data 2"}}, "note": "Where two headings read alike, the source gives them in different places."}
{"smiles": "CC(C)(C)C(=O)N1N=CC[C@H]1c1ccccc1", "note": "[GSK′963]", "values": [{"measurement": "remaining activity at 10 µM", "setting": "CAMK1a; [1]", "result": 96.3, "unit": "%"}, {"measurement": "remaining activity at 10 µM", "setting": "CAMK1a; [2]", "result": 99.3, "unit": "%"}, {"measurement": "remaining activity at 10 µM", "setting": "CAMK1a; [3]", "result": 93.3, "unit": "%"}, {"measurement": "remaining activity at 10 µM", "setting": "CK1d; [1]", "result": 96.7, "unit": "%"}, {"measurement": "remaining activity at 10 µM", "setting": "CK1d; [2]", "result": 94.1, "unit": "%"}, {"measurement": "remaining activity at 10 µM", "setting": "CK1d; [3]", "result": 99.2, "unit": "%"}, {"measurement": "remaining activity at 10 µM", "setting": "CLK2; [1]", "result": 101, "unit": "%"}, {"measurement": "remaining activity at 10 µM", "setting": "CLK2; [2]", "result": 102, "unit": "%"}, {"measurement": "remaining activity at 10 µM", "setting": "CLK2; [3]", "result": 99.7, "unit": "%"}, {"measurement": "remaining activity at 10 µM", "setting": "DYRK4; [1]", "result": 101, "unit": "%"}, {"measurement": "remaining activity at 10 µM", "setting": "DYRK4; [2]", "result": 101, "unit": "%"}, {"measurement": "remaining activity at 10 µM", "setting": "DYRK4; [3]", "result": 101, "unit": "%"}, {"measurement": "remaining activity at 10 µM", "setting": "EGFR; [1]", "result": 106, "unit": "%"}, {"measurement": "remaining activity at 10 µM", "setting": "EGFR; [2]", "result": 105, "unit": "%"}, {"measurement": "remaining activity at 10 µM", "setting": "EGFR; [3]", "result": 108, "unit": "%"}, {"measurement": "remaining activity at 10 µM", "setting": "MLCK/MYLK; [1]", "result": 96.1, "unit": "%"}, {"measurement": "remaining activity at 10 µM", "setting": "MLCK/MYLK; [2]", "result": 97.1, "unit": "%"}, {"measurement": "remaining activity at 10 µM", "setting": "MLCK/MYLK; [3]", "result": 95.2, "unit": "%"}, {"measurement": "remaining activity at 10 µM", "setting": "PKCb2; [1]", "result": 105, "unit": "%"}, {"measurement": "remaining activity at 10 µM", "setting": "PKCb2; [2]", "result": 105, "unit": "%"}, {"measurement": "remaining activity at 10 µM", "setting": "PKCb2; [3]", "result": 106, "unit": "%"}, {"measurement": "remaining activity at 10 µM", "setting": "PKCd; [1]", "result": 106, "unit": "%"}, {"measurement": "remaining activity at 10 µM", "setting": "PKCd; [2]", "result": 106, "unit": "%"}, {"measurement": "remaining activity at 10 µM", "setting": "PKCd; [3]", "result": 107, "unit": "%"}, {"measurement": "remaining activity at 10 µM", "setting": "PKCmu/PRKD1; 10 uM, 10 μM ATP, read-out: % Enzyme Activity (relative to DMSO controls) Data 1", "result": 99.9, "unit": "%"}, {"measurement": "remaining activity at 10 µM", "setting": "PKCmu/PRKD1; 10 uM, 10 μM ATP, read-out: % Enzyme Activity (relative to DMSO controls) Data 2", "result": 103, "unit": "%"}, {"measurement": "remaining activity at 10 µM", "setting": "PKCmu/PRKD1; [1]", "result": 101, "unit": "%"}, {"measurement": "remaining activity at 10 µM", "setting": "PRKX; [1]", "result": 107, "unit": "%"}, {"measurement": "remaining activity at 10 µM", "setting": "PRKX; [2]", "result": 106, "unit": "%"}, {"measurement": "remaining activity at 10 µM", "setting": "PRKX; [3]", "result": 107, "unit": "%"}]}
